Experiments:
[1] = biological target: T1, Adrenergic receptor alpha-1 (Rattus norvegicus, UniProt P15823+P23944+P43140); assay: Displacement of [3H]-prazosin from rat brain alpha1 adrenergic receptor after 50 mins
T1 sequence (P15823 whole entry): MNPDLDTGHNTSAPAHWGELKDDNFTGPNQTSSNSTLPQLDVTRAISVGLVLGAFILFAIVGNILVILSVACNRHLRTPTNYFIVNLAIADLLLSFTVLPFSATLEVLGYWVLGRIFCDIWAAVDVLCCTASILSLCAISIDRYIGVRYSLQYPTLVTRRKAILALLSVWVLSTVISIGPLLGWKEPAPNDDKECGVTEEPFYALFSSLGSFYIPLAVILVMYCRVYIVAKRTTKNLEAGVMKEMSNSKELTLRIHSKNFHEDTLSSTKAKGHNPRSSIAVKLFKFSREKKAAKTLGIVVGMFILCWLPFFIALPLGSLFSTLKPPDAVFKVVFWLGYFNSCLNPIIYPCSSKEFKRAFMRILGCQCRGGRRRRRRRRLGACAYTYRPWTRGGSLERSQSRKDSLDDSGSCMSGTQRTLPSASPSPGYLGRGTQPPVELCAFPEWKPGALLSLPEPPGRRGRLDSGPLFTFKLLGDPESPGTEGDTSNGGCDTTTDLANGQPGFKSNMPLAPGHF
T1 sequence (P23944 whole entry): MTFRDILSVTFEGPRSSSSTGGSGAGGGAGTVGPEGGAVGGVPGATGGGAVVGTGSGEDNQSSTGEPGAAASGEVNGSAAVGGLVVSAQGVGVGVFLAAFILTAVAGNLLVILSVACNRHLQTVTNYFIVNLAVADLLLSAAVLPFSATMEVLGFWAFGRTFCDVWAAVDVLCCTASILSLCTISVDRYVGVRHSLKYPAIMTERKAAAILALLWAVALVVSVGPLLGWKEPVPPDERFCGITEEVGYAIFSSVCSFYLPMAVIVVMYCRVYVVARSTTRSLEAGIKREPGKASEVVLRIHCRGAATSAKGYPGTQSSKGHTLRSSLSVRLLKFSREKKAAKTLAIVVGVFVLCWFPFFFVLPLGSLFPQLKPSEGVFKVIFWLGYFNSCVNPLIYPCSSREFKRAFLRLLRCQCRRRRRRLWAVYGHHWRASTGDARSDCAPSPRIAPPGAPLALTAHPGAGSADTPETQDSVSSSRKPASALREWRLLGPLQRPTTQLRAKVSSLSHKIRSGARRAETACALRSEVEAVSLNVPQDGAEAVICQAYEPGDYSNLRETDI
T1 sequence (P43140 whole entry): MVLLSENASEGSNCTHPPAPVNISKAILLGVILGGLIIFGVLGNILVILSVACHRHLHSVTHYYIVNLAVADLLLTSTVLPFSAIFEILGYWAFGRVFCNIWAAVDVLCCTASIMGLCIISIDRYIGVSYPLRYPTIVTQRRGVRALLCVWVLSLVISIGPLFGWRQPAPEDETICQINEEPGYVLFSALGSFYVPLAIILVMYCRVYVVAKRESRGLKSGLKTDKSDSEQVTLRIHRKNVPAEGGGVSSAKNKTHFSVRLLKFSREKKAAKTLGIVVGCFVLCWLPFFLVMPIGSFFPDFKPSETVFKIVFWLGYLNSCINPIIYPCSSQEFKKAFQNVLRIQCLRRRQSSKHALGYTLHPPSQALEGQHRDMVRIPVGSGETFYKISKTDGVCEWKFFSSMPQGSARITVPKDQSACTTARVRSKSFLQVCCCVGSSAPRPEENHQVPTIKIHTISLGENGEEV

[2] = biological target: T2, 5-hydroxytryptamine receptor 1A (Homo sapiens, UniProt P08908); assay: Displacement of [3H]8-OH-DPAT from human 5HT1A receptor transfected in HEK293-EBNA cells after 120 mins; assay type: cell-based
T2 sequence (P08908 whole entry): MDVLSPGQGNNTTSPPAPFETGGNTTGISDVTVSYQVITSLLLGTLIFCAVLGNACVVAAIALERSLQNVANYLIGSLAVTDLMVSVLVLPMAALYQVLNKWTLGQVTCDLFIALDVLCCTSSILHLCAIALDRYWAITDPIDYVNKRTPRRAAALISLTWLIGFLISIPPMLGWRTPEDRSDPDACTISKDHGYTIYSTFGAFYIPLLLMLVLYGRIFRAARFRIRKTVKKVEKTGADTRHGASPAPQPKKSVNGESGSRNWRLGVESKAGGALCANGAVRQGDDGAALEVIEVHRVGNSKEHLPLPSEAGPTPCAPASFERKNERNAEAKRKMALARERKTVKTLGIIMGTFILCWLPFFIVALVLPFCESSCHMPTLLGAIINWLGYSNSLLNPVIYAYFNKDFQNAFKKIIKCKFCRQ

[3] = biological target: T3, 5-hydroxytryptamine receptor 7 (Homo sapiens, UniProt P34969); assay: Displacement of [3H]5-CT from human 5HT7 receptor transfected in HEK293 cells after 60 mins; assay type: cell-based
T3 sequence (P34969 whole entry): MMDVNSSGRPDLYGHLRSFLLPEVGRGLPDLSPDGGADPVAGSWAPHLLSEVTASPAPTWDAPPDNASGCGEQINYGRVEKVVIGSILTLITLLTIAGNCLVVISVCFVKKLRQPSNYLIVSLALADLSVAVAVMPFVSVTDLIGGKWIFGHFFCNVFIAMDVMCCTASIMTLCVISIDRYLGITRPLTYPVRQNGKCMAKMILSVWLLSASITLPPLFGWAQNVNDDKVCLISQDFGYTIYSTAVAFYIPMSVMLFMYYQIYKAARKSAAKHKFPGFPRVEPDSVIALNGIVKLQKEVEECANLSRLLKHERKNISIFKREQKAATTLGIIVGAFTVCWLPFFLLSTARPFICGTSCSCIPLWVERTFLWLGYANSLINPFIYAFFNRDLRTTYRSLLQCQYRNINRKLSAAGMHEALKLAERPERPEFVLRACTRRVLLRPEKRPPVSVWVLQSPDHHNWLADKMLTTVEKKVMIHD

[4] = Drug metabolism in rat liver S9 fraction assessed as compound remaining at 10 uM after 30 mins by RP-HPLC analysis; assay type: ADME, subcellular; conditions: read-out: Stability
[5] = Efflux ratio of permeability from basolateral to apical side over apical to basolateral side in human Caco2 cells at 10 to 100 uM after 30 to 120 mins; assay type: ADME, cell-based; conditions: Caco-2
[6] = Drug metabolism in Danish Landrace pig plasma assessed as compound remaining at 432 +/- 102 MBq, iv after 5 mins; assay type: ADME, organism-based, Sus scrofa; conditions: read-out: Stability
[7] = Drug uptake in Danish Landrace pig brain at 52 to 300 MBq, iv administered 90 mins prior to cyclosporine A challenge measured after 30 mins by PET imaging analysis; assay type: ADME, organism-based, Sus scrofa; conditions: in vivo, 0.5 h
[8] = Drug uptake in Danish Landrace pig brain at 52 to 300 MBq, iv after 90 mins by PET imaging analysis; assay type: ADME, organism-based, Sus scrofa; conditions: in vivo
[9] = biological target: T3, 5-hydroxytryptamine receptor 7; assay: Displacement of [3H]5-CT from human 5HT7 receptor transfected in HEK293 cells after 60 mins by Scatchard plot analysis; assay type: cell-based
[10] = Drug uptake in Danish Landrace pig brain at 432 +/- 102 MBq, iv administered 90 mins prior to cyclosporine A challenge measured after 30 mins by PET imaging analysis; assay type: ADME, organism-based, Sus scrofa; conditions: in vivo, 0.5 h
[11] = Drug uptake in Danish Landrace pig brain at 432 +/- 102 MBq, iv after 90 mins by PET imaging analysis; assay type: ADME, organism-based, Sus scrofa; conditions: in vivo
Sus scrofa = assay: Ratio of drug uptake in Danish Landrace pig brain at 432 +/- 102 MBq, iv in presence of cyclosporine A to drug uptake in Danish Landrace pig brain at 432 +/- 102 MBq, iv after 90 mins; conditions: in vivo

Structure (SMILES)	Ki [1] [µM]	Ki [2] [µM]	Ki [3] [µM]	further results
O=C(CCOCCN1CCN(c2ccccc2-c2ccc(F)cc2)CC1)NCc1ccc(F)nc1	0.0513	0.433	0.0159	
COc1ccc(-c2ccccc2N2CCN(CCOCCC(=O)NCc3ccncc3)CC2)cc1				remaining at 0.5 h, 10 µM [4]: 82%; efflux ratio at up to 100 µM [5]: 4.48
COc1ccc(CNC(=O)CCCCCN2CCN(c3cccnc3-c3ccncc3)CC2)cc1	> 1	0.537	0.0642	
O=C(CCCCCN1CCN(c2cccnc2-c2ccncc2)CC1)NCc1ccc(F)nc1	0.414	0.961	0.0667	
[11CH3]Oc1ccc(-c2ccccc2N2CCN(CCOCCC(=O)NCc3ccncc3)CC2)cc1				remaining at 5 min [6]: 30%; Drug uptake [7]: Active; Drug uptake [8]: Active
O=C(CCCCCN1CCN(c2ncccc2-c2ccncc2)CC1)NCc1ccc(F)nc1	0.255	0.203	0.071	
COc1ccc(CNC(=O)CCCCCN2CCN(c3ncccc3-c3ccncc3)CC2)cc1	0.816	0.614	0.0261	
COc1ccc(-c2ccccc2N2CCN(CCCCCC(=O)NCc3ccncc3)CC2)cc1				Bmax [9]: 2.7 pmol/mg; Kd [9]: 0.00117 µM; remaining at 0.5 h, 10 µM [4]: 76%; efflux ratio at up to 100 µM [5]: 3.33
Cc1ccccc1-c1ccccc1N1CCN(CCOCCC(=O)NCc2ccc(F)nc2)CC1	0.365	0.875	0.0128	
[11CH3]Oc1ccc(-c2ccccc2N2CCN(CCCCCC(=O)NCc3ccncc3)CC2)cc1				Drug uptake [10]: Active; Drug uptake [11]: Active; Ratio (Sus scrofa): 3

Now from value to compound, other results behind:

Ki [1] [µM]	Ki [2] [µM]	Ki [3] [µM]	Structure (SMILES)	further results
0.386	0.568	0.0345	COc1ccc(-c2ccccc2N2CCN(CCOCCC(=O)NCc3ccc(F)nc3)CC2)cc1	
0.0133			COc1ccc(-c2ccccc2N2CCN(CCCCCC(=O)NCc3ccc(F)nc3)CC2)cc1	
> 1	0.387	> 1	COc1ccccc1-c1cccc(N2CCN(CCOCCC(=O)NCc3ccc(F)nc3)CC2)c1	
0.156	0.272	0.0452	COc1ccc(CNC(=O)CCOCCN2CCN(c3ccccc3-c3ccc(F)cc3)CC2)cc1	
> 1	0.186	> 1	COc1ccc(CNC(=O)CCOCCN2CCN(c3cccc(-c4ccccc4OC)c3)CC2)cc1	
0.162	0.743	0.0334	COc1ccc(CNC(=O)CCOCCN2CCN(c3ccccc3-c3ccccc3C)CC2)cc1	
